In patent publication US4963570A, “1-(acetylaminophenyl)-2-aminopropanone derivatives and pharmaceutical compositions thereof” (Laboratoire L. Lafon, priority 1983, dated 1990):
“Also recorded” adds a separate entry of the source. Counter-ions that a name gives are not always drawn.

What was measured:
[1] = test system: CNS; test: overall neuropsychopharmacological (CNS) profile; assay type: in vivo, mouse; rat; conditions: i.p.
Protocol: The neuropsychopharmacological study of CRL 41 219 was carried out as indicated above for CRL 41 224.
The neuropsychopharmacological study of CRL 41 220 was carried out in accordance with the procedures given above for CRL 41 224.

[2] = test system: mice; test: action on the spontaneous motility (actimeter); assay type: in vivo, mouse; conditions: mice, i.p.; dose not stated
Protocol: 0.5 hour after they have received CRL 41 224, the mice (6 per dose, 12 control animals) are placed in an actimeter, where their motility is recorded for 30 minutes.

[3] = test system: mice; test: action on the behavioral despair; assay type: in vivo, mouse; conditions: i.p., dose not stated
Source text: Half an hour after they have received CRL 41 224, groups of 6 mice are placed in a beaker filled with water to a height of 6 cm. The total period of immobility between the 2nd and 6th minutes following immersion is noted.

[4] = test system: mice; test: interaction with reserpine; assay type: in vivo, mouse; conditions: i.p.
Protocol: Four hours after the intraperitoneal injection of 2.5 mg/kg of reserpine, groups of 6 mice receive CRL 41 224.

[5] = test system: peripheral α-adrenergic stimulation; test: signs of peripheral adrenergic stimulation; assay type: in vivo, mouse; rat; conditions: i.p.; dose not stated
Protocol: (§1) Groups of three animals are observed before and then 0.25 hour, 0.50 hour, 1 hour, 2 hours, 3 hours and 24 hours after the administration of CRL 41 224.

[6] = test system: mice; test: interaction with oxotremorine; assay type: in vivo, mouse; conditions: i.p.
Protocol: CRL 41 224 is administered to groups of 6 mice 0.5 hour before the intraperitoneal injection of 0.5 mg/kg of oxotremorine.

[7] = test system: mice; test: overall behavior and reactivities in mice; assay type: in vivo, mouse; conditions: mice, i.p.; dose not stated
Protocol: as §1

[8] = test system: male mice; test: acute toxicity, intraperitoneal (lethal doses); assay type: in vivo, mouse; conditions: i.p.
Protocol: (§2) By intraperitoneal administration to male mice, the LD-30 (lethal dose for 30% of the animals tested) is of the order of 128 mg/kg and the LD-50 is of the order of about 200 mg/kg.

[9] = acute toxicity, intraperitoneal (lethal doses); assay type: in vivo, mouse; conditions: mouse, in vivo, ip; male mice
Protocol: as §2

[10] = test system: mice; test: four plate test, traction and electric shock; assay type: in vivo, mouse; conditions: i.p., dose not stated
Protocol: The test is performed on groups of 10 mice 30 minutes after the administration of CRL 41 224.

[11] = test system: mice; test: asphyxiant anoxia (gallamine triiodoethylate); assay type: in vivo, mouse; conditions: i.p.; dose not stated
Protocol: Groups of 10 mice receive CRL 41 224 half an hour before the intraperitoneal administration of 32 mg/kg of gallamine triiodoethylate (reference curarizing agent).

[12] = test system: mice; test: motility reduced by habituation to the enclosure; assay type: in vivo, mouse; conditions: i.p.
Protocol: After they have stayed in the actimeters for 18 hours, the mice (6 per dose, 12 control animals) receive CRL 41 224. They are immediately returned to their respective enclosures and, half an hour later, their motility is recorded for 30 minutes.

[13] = test system: rats; test: overall behavior and reactivities in rats; assay type: in vivo, rat; conditions: i.p., dose not stated
Protocol: as §1

[14] = test system: rats; test: interaction with amphetamine; assay type: in vivo, rat; conditions: rats, i.p.; dose not stated
Protocol: Amphetamine (2 mg/kg) is injected intraperitoneally into groups of 6 rats 30 minutes after the administration of CRL 41 224.

[15] = test system: mice; test: interaction with barbital; assay type: in vivo, mouse; conditions: i.p.
Protocol: Half an hour after the administration of CRL 41 224, groups of 10 mice receive an intraperitoneal injection of barbital (220 mg/kg).

[16] = test system: rats; test: interaction with apomorphine in rats; assay type: in vivo, rat; conditions: i.p., dose not stated
Protocol: CRL 41 224 is administered to groups of 6 rats 0.5 hour before the subcutaneous injection of 0.5 mg/kg of apomorphine.

[17] = test system: mice; test: motility reduced by hypoxic aggression; assay type: in vivo, mouse; conditions: i.p., dose not stated
Protocol: Half an hour after they have received CRL 41 224, the mice (10 per dose, 20 control animals) are subjected to acute hypobaric anoxia [pressure reduction of 600 mm Hg (i.e. about 8×10^4 Pa) in 90 seconds; release of vacuum in 45 seconds] and are then placed in an actimeter, where their motility is recorded for 10 minutes.

[18] = test system: mice; test: interaction with apomorphine in mice; assay type: in vivo, mouse; conditions: i.p.
Protocol: Groups of 6 mice receive CRL 41 224 0.5 hour before the subcutaneous injection of 1 or 16 mg/kg of apomorphine.

[19] = test system: delayed hypersensitivity to the red blood corpuscles of sheep; test: delayed hypersensitivity to the red blood corpuscles of sheep (Miller); assay type: in vivo; conditions: oral, 10 to 100 mg/kg
[20] = test system: spleen cells expressing a direct IgM antibody response; test: test for cells forming lysis areas (PFC IgM, Cunningham); assay type: in vivo, mouse; conditions: 1 mg/kg
[21] = test system: immunological properties; test: immunological properties, overall; assay type: in vivo; conditions: dose not stated
Source text: The present 1-(acetylaminophenyl)-2-aminopropanone derivatives are useful in therapy. They all act on the CNS, more precisely as antidepressants. They have a stimulant or excitant component in their neuropsychopharmacological profile.

[22] = test system: male mice; test: interaction with proadifen: hypothermia induced by apomorphine; assay type: in vivo, mouse
Protocol: (§3) Two series of experiments were carried out. In the first one, male mice (12 per dose, 12 control animals) were administered per I.P. route (i) with proadifen (75 mg/kg) at T-3 h, then (ii) with CRL 41 152 at T-0.5 h. At T=0 the mice were placed in actimeters, where their motility was recoded for 0.5 h. In the second one male mice (12 per dose, 12 control animals) were administered with proadifen and CRL 41 152 as indicated hereinabove, then subcutaneously with apomorphine (16 mg/kg) at T=0 in order to appreciate the potential variation of the hypothermia induced by apomorphine.
(§4) In these two series CRL 41 152, in solution in distilled water, was administered per I.P. route to male mice in a volume of 20 ml/kg.

[23] = test system: male mice; test: interaction with proadifen: motility; assay type: in vivo, mouse; conditions: i.p., administered alone
Protocol: as §3, §4

CC(=O)Nc1ccc(C(=O)C(C)N2CCCC2)cc1Cl (stereo not drawn) [CRL 41 219, 1-(4-acetylamino-3-chlorophenyl)-2-pyrrolidinopropanone hydrochloride]
overall action on the CNS ([1]; mice and rats, dose not stated): antidepressant, stimulant and arousing properties
spontaneous motility / motor activity [2]: hyperactivity, increase in the spontaneous motor activity
period of immobility or "despair" [3]: reduction in the immobility
hypothermia induced by reserpine ([4]; dose not stated): antagonism of the hypothermia induced by apomorphine, reserpine
ptosis induced by reserpine ([4]; dose not stated): antagonism of the ptosis induced by reserpine
mydriasis [5]: mydriasis
peripheral adrenergic stimulation, overall [5]: effects reflecting peripheral α-adrenergic stimulation
hypothermia induced by oxotremorine ([6]; dose not stated): antagonism of the hypothermia induced by apomorphine, reserpine and oxotremorine
trembling caused by oxotremorine ([6]; dose not stated): antagonism of the trembling caused by oxotremorine
excitation in mice [7]: excitation with hyperreactivity
stereotype movements in mice [7]: late appearance of stereotypies
LD-30 [8]: ~128 mg/kg
LD50 [9]: ~200 mg/kg
lethal effects of electric shock [10]: aggravation of the lethal effects of electric shock
number of punished passes in the 4 plate test ([10]; mice): increase in the number of punished passes
time taken for convulsions and death to occur following asphyxiant anoxia [11]: reduction in the time taken for convulsions and death to occur following asphyxiant anoxia
motor activity after habituation to the enclosure ([12]; dose not stated): resumption in the motor activity after habituation to the enclosure
excitation in rats [13]: excitation (with hyperractivity)
stereotype movements in rats [13]: presence of stereotype movements
stereotypies induced by amphetamine [14]: potentiation of the stereotypies induced by apomorphine and amphetamine
sleep induced by barbital ([15]; dose not stated): antagonism of the sleep induced by barbital
stereotypies induced by apomorphine [16]: potentiation of the stereotypies induced by apomorphine
motor recovery after hypoxic aggression [17]: improvement in the motor recovery after hypoxic aggression
hypothermia induced by apomorphine ([18]; dose not stated): antagonism of the hypothermia induced by apomorphine

CC(=O)Nc1cccc(C(=O)C(C)NC(C)C)c1 (stereo not drawn) [CRL 41 254]
overall action on the CNS ([1]; strong/high doses): modest antidepressant effects; also recorded: weak stimulant effects
hypothermia induced by reserpine ([4]; strong doses): no antagonism of the hypothermia induced by reserpine
hypothermia induced by oxotremorine ([6]; strong/high doses): antagonism of the hypothermia induced by apomorphine and oxotremorine
immunostimulant activity, delayed hypersensitivity [19]: statistically significant immunostimulant activity
LD-0 (maximum non-lethal dose) [8]: greater than 256 mg/kg
LD-100 [8]: less than or equal to 512 mg/kg
immunostimulant activity, PFC IgM test [20]: statistically significant immunostimulant activity
motor activity after habituation to the enclosure ([12]; strong doses): a moderate resumption in the motor activity of mice accustomed to their enclosure
duration of the sleep induced by barbital ([15]; strong/high doses): a reduction in the duration of the sleep induced by barbital
immunological properties, overall [21]: beneficial immunomodulating effects
hypothermia induced by apomorphine ([18]; strong doses): antagonism of the hypothermia induced by apomorphine

CCCC(C(=O)OCCN(CC)CC)(c1ccccc1)c1ccccc1 [Proadifen, reference compound]
righting behaviour and stereotypies induced by apomorphine ([22]; i.p., apomorphine 16 mg/kg s.c.): Neither proadifen, nor CRL 41 152, nor their combination modify the righting behaviour
body temperature, used alone ([22]; proadifen 75 mg/kg i.p.): important hypothermic effect
hypothermia induced by apomorphine ([22]; proadifen 75 mg/kg i.p., apomorphine 16 mg/kg s.c.): does not modify the hypothermia induced by apomorphine
spontaneous motility [23]: induces hypomotility
